Results: ChEMBL document CHEMBL1201862, “PubChem BioAssay data set” (2004)
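A five-concentration, 48-hour dose response in 96-well plates underlies each endpoint, interpolated linearly between surrounding concentrations. Abbreviation: GI50, concentration required for 50% inhibition of growth.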 Active and inactive are the calls of the source. No stated cut-off is given here; in the data, active = GI50 up to about 1.1 µM and inactive = higher.

What was measured:
Experiment in all cases: NCI tumour cell line growth inhibition, 48 h
UACC-257 = system: UACC-257
TK-10 = system: TK-10
KM12 = system: KM12
MDA-N = system: MDA-N
HT-29 = system: HT-29
DU-145 = system: DU-145
RXF 393 = system: RXF 393
HL-60 = system: HL-60
A498 = system: A498
Malme-3M = system: Malme-3M
SK-MEL-28 = system: SK-MEL-28
SN12C = system: SN12C
T47D = system: T47D
CAKI-1 = system: CAKI-1
MCF7 = system: MCF7
SW-620 = system: SW-620
NCI-H23 = system: NCI-H23
M14 = system: M14
NCI-H522 = system: NCI-H522
EKVX = system: EKVX

Measured: GI50

CN1CCC(O)(OC(=O)C(c2ccccc2)C2(O)CCCC2)CC1 (stereo not given)
inactive: UACC-257 > 100 µM | TK-10 > 100 µM | KM12 > 100 µM | MDA-N > 100 µM | HT-29 > 100 µM | DU-145 > 100 µM | RXF 393 > 100 µM | HL-60 > 100 µM | A498 > 100 µM | Malme-3M > 100 µM | SK-MEL-28 > 100 µM | SN12C > 100 µM | T47D > 100 µM | CAKI-1 > 100 µM | MCF7 > 100 µM | SW-620 > 100 µM | NCI-H23 > 100 µM | M14 > 100 µM | NCI-H522 > 100 µM | EKVX > 100 µM

NCCc1ccc(S(=O)(=O)O)cc1[N+](=O)[O-]
inactive: UACC-257 > 100 µM | TK-10 > 100 µM | KM12 > 100 µM | MDA-N > 100 µM | HT-29 > 100 µM | DU-145 > 100 µM | RXF 393 > 100 µM | HL-60 > 100 µM | A498 > 100 µM | Malme-3M > 100 µM | SK-MEL-28 > 100 µM | SN12C > 100 µM | T47D > 100 µM | CAKI-1 > 100 µM | MCF7 > 100 µM | SW-620 > 100 µM | NCI-H23 > 100 µM | M14 > 100 µM | NCI-H522 > 100 µM | EKVX > 100 µM

O=C(Nc1nnc(-c2ccccc2)o1)C(SC(=S)N1CCCC1)c1ccccc1 (stereo not given)
inactive: UACC-257 37 µM | TK-10 51.9 µM | KM12 32.8 µM | MDA-N 32.1 µM | HT-29 35.1 µM | DU-145 30.6 µM | RXF 393 40.3 µM | HL-60 19.9 µM | A498 27.1 µM | Malme-3M 45 µM | SK-MEL-28 49 µM | SN12C 16.7 µM | T47D 46.8 µM | CAKI-1 29.9 µM | MCF7 31.3 µM | SW-620 49.1 µM | NCI-H23 24.3 µM | M14 23.6 µM | NCI-H522 22.3 µM | EKVX 22.3 µM

c1ccc(CN2CCc3[nH]c4ccccc4c3C2)cc1
inactive: UACC-257 16 µM | TK-10 23.9 µM | KM12 22.5 µM | MDA-N 22.1 µM | HT-29 17.3 µM | DU-145 31 µM | RXF 393 34.7 µM | HL-60 17.6 µM | A498 26.6 µM | Malme-3M 17.8 µM | SK-MEL-28 17.5 µM | SN12C 34.3 µM | T47D 14.9 µM | CAKI-1 36.5 µM | MCF7 17.1 µM | SW-620 24.8 µM | NCI-H23 59.2 µM | M14 17.3 µM | NCI-H522 18.1 µM | EKVX 46.5 µM

O=C(NC(Nc1ccc(F)c(Cl)c1)(C(F)(F)F)C(F)(F)F)C(C(F)(F)F)C(F)(F)F
inactive: UACC-257 32.7 µM | TK-10 36.4 µM | KM12 17.9 µM | MDA-N 28.5 µM | HT-29 21.9 µM | DU-145 27.5 µM | RXF 393 23.2 µM | HL-60 15.6 µM | A498 44.3 µM | Malme-3M 19.1 µM | SK-MEL-28 50.7 µM | SN12C 32.5 µM | T47D 44.3 µM | CAKI-1 32.4 µM | MCF7 33 µM | SW-620 22.1 µM | NCI-H23 23.3 µM | M14 21.9 µM | NCI-H522 16.8 µM | EKVX 68.4 µM
